Calls of active or inactive are those of the source. No cut-off for these calls is given here.
Tests used:
Assay type in all cases: functional, cell-based
MCF7 [1] = experiment: Induction of apoptosis in human breast carcinoma MCF7 cell line
Jurkat [2] = experiment: Induction of apoptosis in human Jurkat […] cell line
MCF7 [3] = experiment: Antitumor activity in human breast carcinoma MCF7 cell line at 1 to 10 uM
Jurkat [4] = experiment: Antitumor activity in human Jurkat […] cell line at 1 to 10 uM

For O=C1N[C@H]2[C@H](O)[C@H](O)[C@@H](O)[C@H](O)[C@@H]2c2cc3c(c(O)c21)OCO3, the Activity (MCF7 [1]) was “Active” and the Activity (Jurkat [2]) was “Active”.

With O=C1N[C@H]2[C@H](O)C[C@@H](O)C[C@@H]2c2cc3c(cc21)OCO3 the Activity (MCF7 [1]) was “inactive”, the Activity (Jurkat [2]) was “inactive” and the Activity (MCF7 [3]) was “inactive”. For the same molecule, the Activity (Jurkat [4]) was “inactive”.

Reference: ChEMBL document CHEMBL1141944, “A synthesis of 3-deoxydihydrolycoricidine: refinement of a structurally minimum pancratistatin pharmacophore” (Bioorg Med Chem Lett, 2005)
